Experimental findings from patent publication US10195190B2, “Local delivery forms of acriflavine for treating tumors” (The Johns Hopkins University, priority 2015, dated 2019) are described below.

Test [1] concerns glioma cell lines (9 L gliosarcoma, F98 glioma, U87, GB1A). Briefly: Acriflavine cytotoxicity in vitro, CCK-8 assay, all glioma cell lines tested. Particulars: 24 h. The class given is cell-based, rodent and human. The protocol:
(§1) The cytotoxicity of ACF was analyzed in rodent 9 L gliosarcoma (obtained from the Brain Tumor Research Center, University of California at San Francisco) and F98 glioma (a gift from R. Barth, Ohio State University) cell lines as well as in commercial and primary human glioblastoma cell lines, U87 (ATCC) and GB1A, respectively. The cells were plated in 96-well plates at a density of 4×10^3 cells/well, cultured for 24 h and treated with ACF (concentration range of 0.2 μM-25 μM). After co-incubation with ACF in medium for 24 h, cell growth was assessed using a CCK-8 assay (Dojindo, Kumamoto, Japan) according to manufacturers' protocol. Data are shown as mean+/−SEM and the inhibitory concentration 50% (IC50)+95% confidence interval and R^2 are reported.
(§2) The following concentrations of acriflavine: 0.0249 μM, 0.1245 μM, 0.249 μM, 2.5 μM, 25 μM, 50 μM, 500 μM, and 1000 μM were tested. CCK-8 assay was added to the wells, and the optical density was read at 450 nm by a microplate reader.
(Tetrazolium assays rely on reduction of a dye to a coloured formazan, in cell work by metabolically active cells.)

For test [2], the system named is 9 L gliosarcoma. The test can be described thus: Survival of F344 rats intracranially implanted with 9 L gliosarcoma. Type of test: in vivo, rat. The note with it: for median survival: systemic treatment (ACF 5 mg/kg/daily from Day 0 or Day 5; oral temozolomide 50 mg/kg/day Days 5-9).
Test [3] deals with 9 L rat gliosarcoma cells. Briefly: Acriflavine cytotoxicity in vitro, CCK-8 assay, 9 L cells. The note with it: 9 L rat glioma cells, 24 h co-incubation, read-out: IC50 concentration, cell viability. Type of test: cell-based. The protocol:
as §1, §2

As for “3,6-diamino-10-methylacridinium chloride mixed with 3,6-acridinediamine [ACF]”, the inhibition of proliferation result in test [1] was “inhibited proliferation in all glioma cell lines tested in a dose-dependent manner”. The “survival benefit compared to the control” value in test [2] (systemic ACF started on Day 0 or Day 5) was “no benefit in survival”. In addition, the median survival in test [2] is on record as 14 days. Besides, in test [3], the IC50 amounted to 1070 nM.

Turning to `Cn1nnc2c(C(N)=O)ncn2c1=O` [temozolomide, Temozolomide], in test [2], the median survival is 28 days.
